Test results as given in patent publication US12454704B2, “Efficient gene delivery tool with a wide therapeutic margin” (priority 2019, dated 2025).

Key:
Neuro2a cells [1] = type: cell-based, murine; conditions: 5 μg/mL
Source text: To evaluate an enhancement of the transfection efficiency through AG1856 an optical based cytotoxicity assay after transfection with ribosome inactivating proteins (RIPs) was chosen.
As transgenes, 6-His-Agrostin RNA3 (Weise et al. 2020) and 6-His-Saporin 3 (Fabbrini et al. 1997) were cloned via BamHI and XbaI (Agrostin) and via SalI and NheI cleavage into pMC.CMV-MCS-SV40polyA (BioCat GmbH, Heidelberg, Germany) to produce minicircle with ZYCY10P3S2T (Kay et al. 2010). In addition to this, Saporin 3 and Gypsophillin S (Kokorin et al. 2019) were cloned into NTC9385R-BGHpA-Nanoplasmids and synthesized by Nature Technology Corporation (Lincoln, NB, USA) as previously described (Luke et al. 2011).
For 3 wells (96-Well-Plate), 300 ng plasmid DNA were diluted in 25 μL water and mixed with 25 μL of a solution with 2,100 ng Peptide Y (K16GACYGLPHKFCG) (GeneCust, Dudelage, Luxembourg). After an incubation period of 30 min, the nanoplexes were formed automatically. […]
The cytotoxic effect of the different constructs on the cells was measured by a CytoSMART® Omni, a camera-based system which took a photo of the bottom of each well every hour. The CytoSMART® Omni software calculated the confluence which is formed by living cells which are attached to the bottom. So, the cell growth could be monitored for 72 h. […]

Neuro2a cells [2] = test: Cell viability test via impedance measurement (iCELLigence); type: cell-based, murine
Method: The impedance (alternating current resistance) at the well bottom as real-time cell viability measure of adherent cells was determined by the iCELLigence® device. 8000 Neuro2a cells per well were seeded into two 8-well E-plates L8 and incubated for 24 h in a volume of 800 μL. For transfection toxicity studies 50 μL of reagent was added after the respective volume of culture medium was removed. Each 10 minutes the impedance/viability was measured.
The curves indicated in FIG. 2 represent the results of the following measurements: […]

female NMRI nu/nu mice = test: Chronic toxicity (tolerability) study of nanoplasmids (NP) plus AG1856 in vivo; conditions: 90 μg per mouse
Method: This study was performed to evaluate the tolerability of combined treatment of nanoplasmids (NP) and AG1856 in Naval Medical Research Institute (NMRI) nu/nu mice.
For the study, female NMRI nu/nu mice were used. Animals were treated with NP+AG1856 at doses of 50 and 90 μg/mouse respectively and after animal recovery in a second round at same doses.

Neuro2a cells [3] = type: cell-based, murine; conditions: saponin alone, 4 μg/mL
Source text: FIGS. 6A and 6B show cell viability tests upon AG1856-mediated delivery of GFP-minicircle-DNA- or RIP-minicircle-DNA-bearing nanoplexes.
Saporin and dianthin are cytotoxic proteins. If the transfection is successful, the transfected cells will die.
The curves depicted in FIG. 6A represent the results of the following measurements: […]

Neuro2a cells [4] = test: Cell confluency as a measure of cell viability, determined optically (Cytosmart); type: cell-based, murine; conditions: saponin 24 μg/mL applied 24 h after seeding
Method: Murine neuroblastoma cells (Neuro2a cells, ATTC CCL-131™) were cultured in Dulbecco's Modified Eagle's Medium (DMEM), containing 1 g/L D-Glucose, 10% FBS and stable glutamine, at 37° C. and 5% CO2. These cells were then incubated with different saponins to test the cytotoxic effect of the saponins.
The cell confluency as a measure of cell viability was determined optically via cell number calculating algorithms (Cytosmart). The results are depicted in FIGS. 1A to 1D.
Buffer was used in each case as negative control.

Neuro2a cells [5] = test: Cell viability test by MTT assay; type: cell-based, murine; conditions: same concentration for all saponins (FIG. 3)
Source text: The determination of mitochondrial activity due to the formation of formazan out of MTT served as biochemical method to measure cell viability.

Neuro2a cells [6] = test: Sapofection: transfection efficiency of GFP-encoding PD nanoplexes by flow cytometry; type: cell-based, murine
Method: The PD nanoplexes comprised DNA encoding for the green fluorescent protein (GFP). Therewith, the transfection efficiency could very easily be monitored by detecting the fluorescence of the cells that have been incubated with the corresponding DNA nanoparticles. The corresponding incubation period was chosen to be 48 hours in the present case.
20 mg of positively charged poly-lysine peptides without an integrin-receptor-targeting amino sequence were purchased from Genecust. The vector of p-EGFP-N3, coding for the green fluorescing protein (GFP), was obtained and propagated with DH5α— E. coli cells (1.645 mg/mL). StemMACS™ eGFP mRNA (20 μg) and GFP encoding minicircle DNA (Gene Bank Accession: U55761) were used as further nucleic acids. In order to conduct the transfection, nanoplexes were formulated as follows: The poly-lysine peptides (P) and the p-EGFP-N3 vector (D), were diluted in water (each 50 μL) and mixed thoroughly by fast pipetting in a ratio of 4:1. The nanoplexes were allowed to form in a 30-minute incubation step. Thereafter, the nanoplex suspension was diluted with OptiMEM to a total volume of 1 mL. The commercial transfection reagent Lipofectamin®3000 was formulated as described by the manufacturer.
Neuro2a cells (15,000 cells/well) were seeded in a 24-well-plate with a well volume of 400 μL culture medium and incubated for 24 h. The transfection reagents were formulated as described above and admixed with saponin solution, if required. The culture medium was replaced with the transfection medium with a final amount of 500 ng DNA/RNA. After a 48 h incubation period, the transfection medium was removed, the cells were trypsinized and transferred in a polystyrene tube for flow cytometry (Cytoflex). For each measurement 10,000 cells were acquired. The transfection efficiency was determined by the analysis software Cyflogic (by comparison of the sample plots with the negative control in terms of fluorescence).

| SMILES | growth of the cells (normalized confluence) (Neuro2a cells [1]; positive control) | toxicity (impedance, real-time cell viability) (Neuro2a cells [2]; positive control, 4 μg/mL) | tolerance compared to other saponins (female NMRI nu/nu mice) | proliferation worse than the negative group (normalized confluence) (Neuro2a cells [1]; AG1856 only) [%] | toxicity (cell viability) (Neuro2a cells [3]) | toxic effect (cell confluency as a measure of cell viability) (Neuro2a cells [4]) | toxicity-mediated drop of viability (MTT) (Neuro2a cells [5]) | transfection efficiency (Neuro2a cells [6]; GFP-plasmid nanoplexes, saponin increased from working concentration to 24 μg/mL (FIG. 5)) | transfection efficiency (Neuro2a cells [6]; PD nanoplexes (GFP DNA), saponin 2 μg/mL, 48 h incubation, versus Lipofectamin3000) | transfection efficiency (Neuro2a cells [6]; PD nanoplexes (GFP DNA), saponin 4 μg/mL or higher, 48 h incubation, versus Lipofectamin3000) | fluorescing cells (flow cytometric analysis) (Neuro2a cells [6]; transfection with GFP minicircle DNA performed with AG1856, n>3 (FIG. 6B)) | toxicity (impedance, real-time cell viability) (Neuro2a cells [2]; stepwise increase of AG1856 concentration, 2 to 24 μg/mL) |
| --- | --- | --- | --- | --- | --- | --- | --- | --- | --- | --- | --- | --- |
| COc1ccc(C[C@H](N)C(=O)N[C@H]2[C@@H](O)[C@H](n3cnc4c(N(C)C)ncnc43)O[C@@H]2CO)cc1 [puromycin, reference compound] | inhibit the growth of the cells instantly | toxic |  |  |  |  |  |  |  |  |  |  |
| CC(=O)OCC1OC(OC2C(O)C(OC3C(OC(=O)C45CCC(C)(C)CC4C4=CCC6C7(C)CCC(OC8OC(C(=O)O)C(O)C(OC9OCC(O)C(O)C9O)C8OC8OC(CO)C(O)C(O)C8O)C(C)(C=O)C7CCC6(C)C4(C)CC5O)OC(C)C(OC4OC(C)C(OC(C)=O)C(OC(C)=O)C4O)C3O)OC(C)C2OC2OCC(O)C(O)C2O)C(O)C(O)C1OC(C)=O (stereo not drawn) [AG1856] |  |  | superior tolerance | 12 | no toxicity | No distinct toxic effect | could not be observed | even increased efficiency | comparable to that of the gold standard Lipofectamin | even higher than that of Lipofectamin | Four cells out of five | no significant toxicity increase |
